# Experimental data: BindingDB's records for patent US11981680 (Bristol Myers Squibb, 2024)
# Target: Protein-arginine deiminase type-4 (Homo sapiens, UniProt Q9UM07)
# Assay: RFMS Human PAD4 Functional Assay
# Protocol: Compounds were solubilized in 100% DMSO to achieve a10 mM compound concentration. Compound stock solutions were stored at RT. A series of dilutions were prepared in DMSO and mixed 8 times with 20 μL mixing volume. Final top concentration of compound in the assay is 50 μM. Final assay conditions were as follows:Reaction volume: 26 μlAssay buffer: 25 mM hepes, pH 7.5, 5 mM NaCl, 1 mM DTT, 0.2 mg/ml BSA, 0.01% CHAPS, 50 μM Calcium, and 5 μM TPENFinal concentrations: 5 nM hPAD4 enzyme, 250 μM BAEE, and 0.5% DMSOTotal incubation time: 30 mins compound and enzyme preincubation at 37° C., 90 min enzyme/substrate reaction, 30 min reaction with phenyl glyoxal at 37° C.Stop solution: 40 μl 5% TCA in ACN0.13 μL of compound solution was added to 13 μL of 10 nM PAD4 in assay buffer. After 30 min 13 μl of 500 μM of BAEE was added in 25 mM hepes, pH 7.5, 5 mM NaCl, 1 mM DTT, 0.2 mg/ml BSA, 0.01% CHAPS, 50 μM Calcium, 5 μM TPEN was added and the reaction incubated for 90 min at 37° C. The enzymatic reaction was quenched by addition of 15 μl of 6.1N TCA, 100% Final Concentration is 20%, 35 μl of 8.5 mM phenyl glyoxal (final concentration 4 mM) is then added and the reaction is incubated for 30 min at 37° C.After 30 minutes the plates are spun down to remove all precipitate. The enzyme reaction was quenched with an equal volume of methanol containing internal standard (modified citrulline). […]
# Chain of Protein-arginine deiminase type-4 (Q9UM07 whole entry): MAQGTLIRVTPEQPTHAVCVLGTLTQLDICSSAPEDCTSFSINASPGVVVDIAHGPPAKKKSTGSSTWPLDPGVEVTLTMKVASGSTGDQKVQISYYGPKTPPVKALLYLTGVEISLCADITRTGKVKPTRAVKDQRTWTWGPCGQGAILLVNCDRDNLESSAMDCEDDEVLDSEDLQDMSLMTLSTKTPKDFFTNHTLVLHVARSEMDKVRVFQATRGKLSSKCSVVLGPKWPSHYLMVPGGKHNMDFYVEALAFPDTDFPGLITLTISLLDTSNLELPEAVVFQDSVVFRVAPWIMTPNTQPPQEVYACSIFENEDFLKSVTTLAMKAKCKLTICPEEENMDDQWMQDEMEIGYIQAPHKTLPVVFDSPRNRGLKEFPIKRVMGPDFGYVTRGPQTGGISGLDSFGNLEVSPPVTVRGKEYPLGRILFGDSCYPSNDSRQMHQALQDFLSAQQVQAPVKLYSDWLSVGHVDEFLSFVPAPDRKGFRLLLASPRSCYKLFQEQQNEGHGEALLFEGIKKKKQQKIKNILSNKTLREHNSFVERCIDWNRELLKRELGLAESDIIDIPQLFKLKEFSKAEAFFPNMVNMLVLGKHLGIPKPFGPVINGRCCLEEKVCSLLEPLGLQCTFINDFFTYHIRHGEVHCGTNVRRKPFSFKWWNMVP
smiles,measurement,value
"COc1cc(C(=O)N2C[C@H]3CC[C@@H]2[C@@H]3N)cc2nc(-c3cc4scc(-c5cn[nH]c5)c4n3CC3CC3)n(C)c12 [US11981680, Example 39]",IC50,35 nM
